Assay results as given in patent publication US20240261422A1, “ANTHRACYCLINE ANTIBODY CONJUGATES” (SEAGEN INC., priority 2021, published 2024).
Like-named read-outs stand apart in the source and are kept apart here.

Legend:
[1] = test system: HL60/RV, MDR + AML; experiment: In vitro growth inhibition (CellTiter-Glo, 96 h), HL60/RV; type: cell-based; conditions: for IC50: Homo sapiens, read-out: IC50 (nM) HL60/RV, MDR + AML; for IC50 (ng/mL) HL60/RV, MDR + AML: cOKT9 ADCs, average DAR 8, 96 h
Procedure: (§1) Cell culture of cell lines as listed in Table 2-4 in log-phase growth were seeded in 96-well plates and grown for 24 h in cell culture media containing 150 μL RPMI 1640 supplemented with 20% FBS (see Mol. Cancer Ther., 2016, 15(5), 938-945 and Mol. Cancer Ther., 2018, 17(8), 1752-1760). Serial dilutions of free drugs or antibody-drug conjugates (final concentration between 0.004 nM and 1 μM) in cell culture media were prepared at 4× working concentrations; 50 μL of each dilution was added to the 96-well plates. Following addition of the drug or ADC, the cells were incubated with test articles (free drugs or ADCs) for 4 d at 37° C. After 96 h, growth inhibition was assessed by CellTiter-Glo® (Promega, Madison, WI) and luminescence was measured on a plate reader (brand, model).
(§2) Cells were treated for 96 hours with anthracycline analogues listed in Table 2, and then assessed for viability as described in the procedures as described above. […] ND denotes value not determined with that assay for the specified compound.
(§3) ADCs were prepared by full reduction of interchain disulfides to reveal 8-conjugatable cysteines/antibody, and subsequent alkylation with the maleimide-containing drug-linkers (Compounds 14, 18, 21, 24, 29, 32, 33, 34, and 48) according to the procedures described in Mol. Cancer Ther. 2018, 17(8). 1752-1760. Conjugates of antibody cOKT9 were prepared with anthracycline linkers. Cancer cell lines were treated with cOKT9 ADCs (average DAR of 8:1) for 96 h and then assessed for viability. […] ND denotes value not determined with that assay for the specified compound.

[2] = test system: 786-O, MDR + RCC; experiment: In vitro growth inhibition (CellTiter-Glo, 96 h), 786-O; type: cell-based; conditions: for IC50: Homo sapiens, read-out: IC50 (nM) 786-O, MDR + RCC; for IC50 (ng/mL) 786-O, MDR + RCC: cOKT9 ADCs, average DAR 8, 96 h
Procedure: as §1, §2, §3

[3] = test system: BxPC3, PancCa; experiment: In vitro growth inhibition (CellTiter-Glo, 96 h), BxPC3; type: cell-based; conditions: for IC50: Homo sapiens, read-out: IC50 (nM) BxPC3, PancCa; for IC50 (ng/mL) BxPC3, PancCa: cOKT9 ADCs, average DAR 8, 96 h
Procedure: as §1, §2, §3

[4] = test system: HL60, AML; experiment: In vitro growth inhibition (CellTiter-Glo, 96 h), HL60; type: cell-based; conditions: for IC50: Homo sapiens, read-out: IC50 (nM) HL60, AML; for IC50 (ng/mL) HL60, AML: cOKT9 ADCs, average DAR 8, 96 h
Procedure: as §1, §2, §3

[5] = test system: L540cy, 786-O, BxPC3, HL60, HL60/RV; experiment: cells; conditions: 96 h, read-out: IC50 values on the cancer lines tested
[6] = test system: L540cy, HL; experiment: In vitro growth inhibition (CellTiter-Glo, 96 h), L540cy; type: cell-based; conditions: for IC50: L540cy, 96 h, read-out: IC50 (nM) L540cy, HL
Procedure: as §1, §2, §3
(§4) Anti-CD30 ADCs comprising cAC10 antibody conjugated to drug-linkers 24, 32, 29, 18, 14, and 48 with an average DAR of 4 were prepared for evaluation on a CD30-expressing lymphoma cell line panel. […] Anti-CD30 conjugates bearing the PNU linkers 24, 32, 29, 18, and 14 were active on L540cy, DEL, and Karpas299 lymphoma cell lines, and conjugate 48 was active on L540cy and DEL cell lines, with IC50s ranging from 0.2-4 ng/mL.

[7] = test system: Ramos, CD30 − NHL; experiment: In vitro growth inhibition (CellTiter-Glo, 96 h), Ramos; type: cell-based; conditions: cAC10 (anti-CD30) ADCs, average DAR 4
Procedure: as §1, §4

[8] = test system: L428, MDR + HL; experiment: In vitro growth inhibition (CellTiter-Glo, 96 h), L428; type: cell-based; conditions: cAC10 (anti-CD30) ADCs, average DAR 4
Procedure: as §1, §4

[9] = test system: Karpas299, ALCL; experiment: In vitro growth inhibition (CellTiter-Glo, 96 h), Karpas299; type: cell-based; conditions: cAC10 (anti-CD30) ADCs, average DAR 4
Procedure: as §1, §4

[10] = test system: L540cy Hodgkin's lymphoma xenograft; experiment: L540cy CD30+ Hodgkin lymphoma xenograft model; type: in vivo, SCID mice; conditions: cAC10 S239C ADCs, average DAR 2; single dose i.p. at about 100 mm^3
Procedure: (§5) All experiments were conducted in concordance with the Animal Care and Use Committee in a facility fully accredited by the Association for Assessment and Accreditation of Laboratory Animal Care. Efficacy experiments were conducted using the L540cy Hodgkin's lymphoma and DEL/BVR anaplastic large cell lymphoma xenograft models (Mol. Cancer Ther., 2018, 17(8), 1752-1760). Tumor cells, as a cell suspension, were implanted subcutaneously in immune-compromised SCID female mice. Upon tumor engraftment, the mice were randomized into study groups when the average tumor volume reached about 100 mm^3. The ADCs were dosed once via intraperitoneal injection. Tumor volume as a function of time was determined using the formula (L×W2)/2. Animals were euthanized when tumor volumes reached 1000 mm^3.
Anti-CD30 conjugates bearing PNU drug-linkers 29, 18, and 14 were evaluated in a CD30-expressing xenograft model as described above. cAC10 antibody with the S239C mutation is conjugated to the PNU drug linkers with an average DAR of 2 to minimize the effects of ADC pharmacokinetics. Tumor-bearing mice were administered a single dose intraperitoneally (i.p.) of test article once the average tumor volume reached 100 mm^3 (typically on day 8). Untreated mice were used as negative controls.

[11] = test system: DEL/BVR anaplastic large cell lymphoma xenograft; experiment: DEL/BVR MDR+, CD30+ anaplastic large cell lymphoma xenograft model; type: in vivo, SCID mice; conditions: cAC10 S239C ADCs, average DAR 2; 3 mg/kg single dose i.p.
Procedure: as §5
Anti-CD30 conjugates bearing PNU drug-linkers 29, 18, and 14 were further evaluated in a DEL/BVR MDR+, CD30+ anaplastic large cell lymphoma xenograft model. cAC10 antibody with the S239C mutation is conjugated to the PNU drug linkers with an average DAR of 2 to minimize the effects of ADC pharmacokinetics. Tumor-bearing mice were administered a 3 mg/kg single dose intraperitoneally (i.p.) of test article once the average tumor volume reached 100 mm^3 (typically on day 4). […] However, the conjugate comprising PNU linker 29 appeared to be non-efficacious, and only provided minimal tumor growth delay (FIG. 2). Untreated mice were used as negative controls.

[12] = test system: L540cy, 786-O, BxPC3, HL60, HL60/RV; conditions: 24 h
[13] = test system: DEL, ALCL; experiment: In vitro growth inhibition (CellTiter-Glo, 96 h), DEL; type: cell-based; conditions: cAC10 (anti-CD30) ADCs, average DAR 4
Procedure: as §1, §4

[14] = HL-60, anthracycline free drugs, 96 h
[15] = 786-0, anthracycline free drugs, 96 h
[16] = BXPC-3, anthracycline free drugs, 96 h
[17] = cAC10 (anti-CD30) ADCs, average DAR 4
[18] = cOKT9 ADCs, average DAR 8, 96 h

SMILES | IC50 [1, 14] [nM] | IC50 [2, 15] [nM] | IC50 [3, 16] [nM] | IC50 [4, 14] [nM] | IC50 [5] [nM] | IC50 ([6]; anthracycline free drugs) [nM] | IC50 (ng/mL) Ramos, CD30 − NHL [7] | IC50 (ng/mL) HL60/RV, MDR + AML [1] | IC50 (ng/mL) L428, MDR + HL [8] | IC50 (ng/mL) Karpas299, ALCL [9] | IC50 (ng/mL) 786-O, MDR + RCC [2] | IC50 (ng/mL) BxPC3, PancCa [3] | IC50 (ng/mL) HL60, AML [4] | IC50s of cOKT9 conjugates [12] [ng/mL] | IC50 (ng/mL) L540cy, HL [6, 17] | IC50 (ng/mL) L540cy, HL [6, 18] | IC50 (ng/mL) DEL, ALCL [13] | further results
COc1cccc2c1C(=O)c1c(O)c3c(c(O)c1C2=O)C[C@@](O)(C(=O)CO)C[C@@H]3O[C@H]1C[C@H](N)[C@H](O)[C@H](C)O1 [Compound 1, Doxorubicin, reference compound] | 100 to 1000 | 10 to 100 | 100 to 1000 | 10 to 100 | 13 to 390 | 10 to 100 | – | – | – | – | – | – | – | – | – | – | – | –
COc1cccc2c1C(=O)c1c(O)c3c(c(O)c1C2=O)C[C@@](O)(C(=O)O)C[C@@H]3O[C@H]1C[C@H](N)[C@H](O)[C@H](C)O1 [Compound 2, (2S,4S)-4-(((2R,4S,5S,6S)-4-amino-5-hydroxy-6-methyltetrahydro-2H-pyran-2-yl)oxy)-2,5,12-trihydroxy-7-methoxy-6,11-dioxo-1,2,3,4,6,11-hexahydrotetracene-2-carboxylic acid] | > 1000 | > 1000 | > 1000 | > 1000 | > 1000 | > 1000 | – | – | – | – | – | – | – | – | – | – | – | –
COc1cccc2c1C(=O)c1c(O)c3c(c(O)c1C2=O)C[C@@](O)(C(=O)CO)C[C@@H]3O[C@H]1C[C@H](N2CCO[C@H](OC)C2)[C@H](O)[C@H](C)O1 [Compound 3, Nemorubicin, reference compound] | – | – | – | – | 2 to 3 | – | – | – | – | – | – | – | – | – | – | – | – | IC50 ([2]; 786-0, 96 h): < 10 nM; IC50 ([3]; BXPC-3, 96 h): < 10 nM; IC50 [6]: < 10 nM
COc1cccc2c1C(=O)c1c(O)c3c(c(O)c1C2=O)C[C@@](O)(C(=O)O)C[C@@H]3O[C@H]1C[C@H]2[C@H](O[C@@H]3[C@@H](OC)OCCN32)[C@H](C)O1 [Compound 6, (2S,4S)-2,5,12-trihydroxy-7-methoxy-4-(((1S,3R,4aS,9S,9aR,10aS)-9-methoxy-1-methyloctahydro-1H-pyrano[4′,3′:4,5]oxazolo[2,3-c][1,4]oxazin-3-yl)oxy)-6,11-dioxo-1,2,3,4,6,11-hexahydrotetracene-2-carboxylic acid] | – | < 10 | 10 to 100 | – | 5 to 19 | < 10 | – | – | – | – | – | – | – | – | – | – | – | IC50 ([1]; HL-60, 96 h): 10 to 100 nM; IC50 ([4]; HL-60, 96 h): 10 to 100 nM
COc1cccc2c1C(=O)c1c(O)c3c(c(O)c1C2=O)C[C@@](O)(C(=O)NCCNC(=O)CCN1C(=O)C=CC1=O)C[C@@H]3O[C@H]1C[C@H]2[C@H](O[C@@H]3[C@@H](OC)OCCN32)[C@H](C)O1 [Compound 14, (2S,4S)—N-(2-(3-(2,5-dioxo-2,5-dihydro-1H-pyrrol-1-yl)propanamido)ethyl)-2,5,12-trihydroxy-7-methoxy-4-(((1S,3R,4aS,9S,9aR,10aS)-9-methoxy-1-methyloctahydro-1H-pyrano[4′,3′:4,5]oxazolo[2,3-c][1,4]oxazin-3-yl)oxy)-6,11-dioxo-1,2,3,4,6,11-hexahydrotetracene-2-carboxamide] | – | – | – | – | – | – | E (IC50≥500 ng/mL) | D (IC50≥1000 ng/mL) | B (1 ng/mL≤IC50<10 ng/mL) | A (IC50<1 ng/mL) | A (IC50<10 ng/mL) | A (IC50<10 ng/mL) | C (100 ng/mL≤IC50<1000 ng/mL) | 1 to 150 | B (1 ng/mL≤IC50<10 ng/mL) | A (IC50<10 ng/mL) | B (1 ng/mL≤IC50<10 ng/mL) | antitumor activity, L540cy xenograft (FIG. 1) [10]: active with a majority of animals in a complete regression; antitumor activity, DEL/BVR xenograft (FIG. 2) [11]: efficacious in suppressing tumor growth
COc1cccc2c1C(=O)c1c(O)c3c(c(O)c1C2=O)C[C@@](O)(C(=O)N(C)CCN(C)C(=O)OCc1ccc(NC(=O)[C@H](C)NC(=O)[C@@H](NC(=O)CCN2C(=O)C=CC2=O)C(C)C)cc1)C[C@@H]3O[C@H]1C[C@H]2[C@H](O[C@@H]3[C@@H](OC)OCCN32)[C@H](C)O1 [Compound 32, 4-((S)-2-((S)-2-(3-(2,5-dioxo-2,5-dihydro-1H-pyrrol-1-yl)propanamido)-3-methylbutanamido)propanamido)benzyl methyl(2-((2S,4S)-2,5,12-trihydroxy-7-methoxy-4-(((1S,3R,4aS,9S,9aR,10aS)-9-methoxy-1-methyloctahydro-1H-pyrano[4′,3′:4,5]oxazolo[2,3-c][1,4]oxazin-3-yl)oxy)-N-methyl-6,11-dioxo-1,2,3,4,6,11-hexahydrotetracene-2-carboxamido)ethyl)carbamate] | – | – | – | – | – | – | D (100 ng/mL≤IC50<500 ng/mL) | C (100 ng/mL≤IC50<1000 ng/mL) | E (IC50≥500 ng/mL) | B (1 ng/mL≤IC50<10 ng/mL) | C (100 ng/mL≤IC50<1000 ng/mL) | B (10 ng/mL≤IC50<100 ng/mL) | B (10 ng/mL≤IC50<100 ng/mL) | 1 to 150 | C (10 ng/mL≤IC50<100 ng/mL) | B (10 ng/mL≤IC50<100 ng/mL) | B (1 ng/mL≤IC50<10 ng/mL) | activity of cOKT9 conjugates on multidrug resistant HL60/RV ([1]; cOKT9 ADCs DAR 8, result in words): active
